Measurements reported in patent US9688722B2, “Substrates and inhibitors of prolyl oligopeptidase and methods of use” (The Board of Regents of the University of Oklahoma, priority 2012, dated 2017).
Entries after “also recorded” stand apart in the source; their conditions may differ. Like-named read-outs stand apart in the source and are kept apart here. Non-standard residues stand in square brackets, D forms with d. Residues, ends and D or L forms follow the SMILES beside them. *: point of attachment. AFC = O=c1cc(C(F)(F)F)c2ccc(N*)cc2o1; Tic = O=C(O)[C@@H]1Cc2ccccc2CN1; AMC = Cc1cc(=O)oc2cc(N*)ccc12; Cbz = O=C(OCc1ccccc1)*; AEEA = NCCOCCOCC(=O)O

Key:
APCE/FAP [1] = target: T1, APCE/FAP (Homo sapiens, UniProt Q12884); test: APCE/FAP inhibition constants (Ki) with Tic-Pro-AFC substrate; format: biochemical; conditions: for Ki: substrate Tic-Pro-AFC
T1 construct: absence of an about 26-residue amino terminal peptide constituting the transmembrane and intracytosolic domains; from tissue
T1 sequence (Q12884 24-760 limits assumed): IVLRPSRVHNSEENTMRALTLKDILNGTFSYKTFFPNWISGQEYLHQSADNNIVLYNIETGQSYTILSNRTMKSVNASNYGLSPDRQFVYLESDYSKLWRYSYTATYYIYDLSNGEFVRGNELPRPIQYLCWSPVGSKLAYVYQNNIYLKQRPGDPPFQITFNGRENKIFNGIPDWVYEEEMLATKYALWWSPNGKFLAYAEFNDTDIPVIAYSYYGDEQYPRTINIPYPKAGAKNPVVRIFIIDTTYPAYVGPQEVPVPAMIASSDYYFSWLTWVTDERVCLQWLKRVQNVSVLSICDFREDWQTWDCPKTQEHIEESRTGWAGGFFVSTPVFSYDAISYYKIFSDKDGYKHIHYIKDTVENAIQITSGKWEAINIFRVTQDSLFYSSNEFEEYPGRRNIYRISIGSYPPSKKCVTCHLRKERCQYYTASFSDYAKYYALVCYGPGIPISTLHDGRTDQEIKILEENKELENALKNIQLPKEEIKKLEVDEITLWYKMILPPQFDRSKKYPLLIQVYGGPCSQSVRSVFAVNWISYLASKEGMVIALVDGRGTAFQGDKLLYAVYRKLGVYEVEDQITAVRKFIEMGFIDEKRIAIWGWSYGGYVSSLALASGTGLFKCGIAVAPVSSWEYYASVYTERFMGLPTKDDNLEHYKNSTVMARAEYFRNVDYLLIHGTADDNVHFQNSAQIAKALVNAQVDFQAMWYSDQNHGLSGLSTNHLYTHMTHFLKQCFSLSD
Experimental: (§1) For accurate assessment of kinetic parameters, saturating concentrations of substrate were used. For standard curves, dilutions of AFC (7-amino-4-trifluoromethylcoumarin) were prepared in the same assay buffer and corresponding fluorescence was measured.

DPPIV [2] = target: T2, DPPIV (Homo sapiens, UniProt P27487); test: DPPIV inhibition constants (Ki) with Tic-Pro-AFC substrate; format: biochemical; conditions: for Selectivity Ki (DPPIV) / Ki (APCE-FAP): ratio of Ki values; for Ki: substrate Tic-Pro-AFC
Experimental: as §1

POP [3] = target: T3, POP (Homo sapiens, UniProt P48147); test: POP inhibition constants (Ki) with Tic-Pro-AFC substrate; format: biochemical; conditions: for Selectivity Ki (POP) / Ki (APCE/FAP): ratio of Ki values; for Ki: substrate Tic-Pro-AFC
T3 sequence (P48147 1-710): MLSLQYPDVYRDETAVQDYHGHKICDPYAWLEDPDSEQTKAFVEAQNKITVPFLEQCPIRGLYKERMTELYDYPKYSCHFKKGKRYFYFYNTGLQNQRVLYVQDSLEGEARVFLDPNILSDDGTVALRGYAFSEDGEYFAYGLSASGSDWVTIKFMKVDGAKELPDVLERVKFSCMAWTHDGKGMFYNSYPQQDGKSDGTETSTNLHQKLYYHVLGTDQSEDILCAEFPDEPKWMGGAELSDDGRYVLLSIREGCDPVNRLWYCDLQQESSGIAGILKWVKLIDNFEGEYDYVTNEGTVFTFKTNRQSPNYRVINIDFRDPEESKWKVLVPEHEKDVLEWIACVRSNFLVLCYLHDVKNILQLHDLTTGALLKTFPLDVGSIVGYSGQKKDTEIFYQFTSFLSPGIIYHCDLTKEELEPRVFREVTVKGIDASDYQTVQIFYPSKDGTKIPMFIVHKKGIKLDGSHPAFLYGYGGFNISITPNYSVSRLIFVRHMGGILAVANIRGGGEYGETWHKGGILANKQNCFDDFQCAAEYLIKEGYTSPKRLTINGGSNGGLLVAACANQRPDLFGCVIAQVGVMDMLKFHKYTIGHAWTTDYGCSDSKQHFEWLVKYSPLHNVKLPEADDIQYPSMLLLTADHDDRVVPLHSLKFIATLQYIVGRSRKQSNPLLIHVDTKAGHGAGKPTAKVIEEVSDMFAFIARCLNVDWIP
Experimental: as §1

APCE/FAP [4] = target: T1, APCE/FAP; test: Cleavage kinetics of fluorescent substrates by APCE/FAP; format: biochemical
Experimental: (§2) APCE (^˜4 μg), DPPIV (^˜2 μg) or POP (^˜2 μg) was incubated in 25 mM sodium phosphate buffer, pH 7.5, containing 1.0 mM EDTA and 2% methanol in a total volume of 200 μl for 20 min at 22° C. Using Tic-Pro-AFC (10-300 μM for APCE, 5-200 μM for DPPIV, and 40-800 μM for POP), fluorescence was monitored with time at excitation/emission wavelengths of 400/508 nm, using a black-sided 96-well plate in a BIO-TEK FL600 fluorescence plate reader. For accurate assessment of kinetic parameters, saturating concentrations of substrate were used. For standard curves, dilutions of AFC (7-amino-4-trifluoromethylcoumarin) were prepared in the same assay buffer and corresponding fluorescence was measured.
(§3) Characterization of Tic-Pro-AFC as substrate: A new substrate, Tic-Pro-AFC, was used for assessing APCE/FAP, DPPIV and POP, each belonging to the same clade of prolyl-specific serine proteinases and each with activity towards unique substrates. […] Based on Ki, Km and kcat values in Tables 6 and 7, Tic-Pro-AFC was readily cleaved by each enzyme, with kcat/Km for APCE/FAP being slightly higher than POP and slightly lower than DPPIV. […] Thus, Tic-Pro-AFC was chosen as the substrate for comparing the potency and selectivity of the inhibitors towards APCE/FAP, DPPIV, or POP.

Aqueous solubility = format: physicochemical; conditions: result in words
Experimental: The specific POP inhibitor, J94 (acetyl-Lys-Leu-Arg-(L)boroPro (Ki<100 nM)); and the substrate, C95 (acetyl-Arg-AEEA-Gly-Pro-AMC), were designed, synthesized and characterized by us as previously reported. […] The inhibitors (J94 and M83) were dissolved in Hanks Balanced Salt Solution (HBSS; Gibco) at 1 mM and stored at −20° C. The substrate (C95) was dissolved in HBSS at 2.5 mM and stored at 4° C. […] Tic-Pro-AFC, a prolyl-specific fluorescent substrate, was supplied by Vantia (Southampton, England).

DPPIV [5] = target: T2, DPPIV; test: Cleavage kinetics of fluorescent substrates by DPPIV; format: biochemical; conditions: for cleavage of substrate by DPPIV: result in words
Experimental: as §2, §3

DPPIV [6] = target: T2, DPPIV; conditions: result in words; cited from earlier work
POP [7] = target: T3, POP; test: Cleavage kinetics of fluorescent substrates by POP; format: biochemical; conditions: for Km / kcat: substrate cleaved by POP
Experimental: as §2, §3

[8] = tested on: HCT116 human colon cancer xenografts; test: HCT116 human colon cancer xenografts in immunodeficient mice; format: in vivo; conditions: 28-day treatment period
HMVEC-d = test: Tube formation assay of HMVEC-d on Matrigel; format: cell-based, human; conditions: 50 μM inhibitor
Experimental: For tube formation assays, Matrigel™ (BD Biosciences, San Jose, Calif.) 80 μl was added to black-sided, clear bottom 96-well plates as above and allowed to gel at 37° C. for 30 minutes. Then 15,000 HMVEC-d in EC media without serum were added and allowed to settle for 1 hour. […] The reader was maintained at 37° C. and fluorescence was measured with time for 18 hours.

[9] = before cyclizing and losing inhibitory activity; cited from earlier work

T2 sequence (P27487 whole entry, species assumed): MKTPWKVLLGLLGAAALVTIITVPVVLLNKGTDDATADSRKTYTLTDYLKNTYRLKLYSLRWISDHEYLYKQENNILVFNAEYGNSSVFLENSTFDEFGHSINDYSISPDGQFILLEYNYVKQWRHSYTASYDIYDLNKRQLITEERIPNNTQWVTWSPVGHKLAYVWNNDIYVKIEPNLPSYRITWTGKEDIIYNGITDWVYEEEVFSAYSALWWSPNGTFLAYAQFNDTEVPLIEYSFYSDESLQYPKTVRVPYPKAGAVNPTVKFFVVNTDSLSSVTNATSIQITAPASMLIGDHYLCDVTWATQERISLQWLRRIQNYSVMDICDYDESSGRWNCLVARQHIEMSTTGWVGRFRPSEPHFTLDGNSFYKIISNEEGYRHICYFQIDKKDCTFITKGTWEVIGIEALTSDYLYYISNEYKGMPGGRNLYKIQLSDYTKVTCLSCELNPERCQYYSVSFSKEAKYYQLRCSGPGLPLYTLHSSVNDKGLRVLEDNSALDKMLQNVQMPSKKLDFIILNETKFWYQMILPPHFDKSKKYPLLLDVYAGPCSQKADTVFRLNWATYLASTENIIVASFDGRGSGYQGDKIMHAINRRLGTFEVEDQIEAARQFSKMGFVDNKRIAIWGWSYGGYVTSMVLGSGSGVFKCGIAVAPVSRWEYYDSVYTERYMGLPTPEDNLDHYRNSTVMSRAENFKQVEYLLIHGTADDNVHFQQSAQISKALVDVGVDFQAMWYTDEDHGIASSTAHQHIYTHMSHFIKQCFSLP

## Ac-Arg-peg-D-Ala-DL(25:75%)-boroPro
APCE/FAP [1]
  Ki: 0.0077 µM

## Ac-Arg-peg-D-Ala-DL(75:25%)-boroPro
APCE/FAP [1]
  Ki: 0.0183 µM

## Ac-Arg-peg-D-Ala-DL(50:50%)-boroPro
APCE/FAP [1]
  Ki: 0.0095 µM
DPPIV [2]
  Selectivity Ki (DPPIV) / Ki (APCE-FAP): 1176
  Ki: 11.2 µM

## CC(=O)N[C@@H](CCCNC(=N)N)C(=O)NCCOCCOCC(=O)NCC(=O)N1CCC[C@H]1B(O)O [Ac-Arg-peg-Gly-L-boroPro]
APCE/FAP [1]
  Ki: 0.0018 µM
DPPIV [2]
  Ki: 0.44 µM
POP [3]
  Selectivity Ki (POP) / Ki (APCE/FAP): 1.2
  Ki: 0.0021 µM

## Ac-Arg-Gly-Gly-DL-boroPro
APCE/FAP [1]
  Ki: 0.0229 µM
DPPIV [2]
  Selectivity Ki (DPPIV) / Ki (APCE-FAP): 14.9
  Ki: 0.341 µM

## CC(=O)N[C@@H](CCCNC(=N)N)C(=O)NCCOCCOCC(=O)NCC(=O)N1CCC[C@H]1C(=O)Nc1ccc2c(C)cc(=O)oc2c1 [Compound C95, acetyl-Arg-AEEA-Gly-Pro-AMC] (Ac-R[AEEA]GP-{AMC})
APCE/FAP [4]; FAP and POP at equimolar concentrations
  relative rate of cleavage by FAP and POP: equivalent rates; also recorded: cleaved at equal rates by FAP or POP
Aqueous solubility
  solubility in aqueous buffers: soluble in aqueous buffers
DPPIV [5]
  cleavage of substrate by DPPIV: neither cleaved

## CC(=O)N[C@@H](CCCNC(=N)N)C(=O)NCC(=O)NCC(=O)N1CCC[C@H]1B(O)O [Ac-Arg-Gly-Gly-L-boroPro]
POP [3]
  Selectivity Ki (POP) / Ki (APCE/FAP): 0.1
  Ki: 0.0016 µM

## CC(=O)N[C@@H](CCCNC(=N)N)C(=O)NCCOCCOCC(=O)N[C@H](CC(=O)O)C(=O)N1CCC[C@H]1B(O)O [Ac-Arg-peg-D-Asp-L-boroPro]
APCE/FAP [1]
  Ki: 1.38 µM
DPPIV [2]
  Selectivity Ki (DPPIV) / Ki (APCE-FAP): 5.2
  Ki: 7.13 µM
POP [3]
  Selectivity Ki (POP) / Ki (APCE/FAP): 0.02
  Ki: 0.0239 µM

## CC(C)[C@H](N)C(=O)N1CCC[C@H]1B(O)O [Val-boroPro]
DPPIV [6]
  inhibition of DPPIV: also inhibit

## O=C(Nc1ccc2c(C(F)(F)F)cc(=O)oc2c1)[C@@H]1CCCN1C(=O)[C@@H]1Cc2ccccc2CN1 [Tic-Pro-AFC] (H-[Tic]-Pro-{AFC})
APCE/FAP [4]; substrate cleaved by APCE/FAP
  Km: 53 ± 5 µM
  kcat: 1.19 ± 0.11 s⁻¹
POP [7]
  Km: 161 ± 12 µM
  kcat: 0.76 ± 0.01 s⁻¹
DPPIV [5]; substrate cleaved by DPPIV
  Km: 33 ± 2 µM
  kcat: 1.49 ± 0.12 s⁻¹

## CC(=O)N[C@@H](CCCCN)C(=O)N[C@@H](CC(C)C)C(=O)N[C@@H](CCCNC(=N)N)C(=O)N1CCC[C@H]1C(=O)Nc1ccc2c(C)cc(=O)oc2c1 [Compound L96, acetyl-Lys-Leu-Arg-Pro-AMC] (Ac-KLRP-{AMC})
APCE/FAP [4]; result in words
  cleavage of substrate by APCE/FAP: Neither DPPIV nor APCE/FAP cleaved
POP [7]
  Km: 30 ± 3 µM
  kcat: 2.4 ± 0.1 s⁻¹
DPPIV [5]
  cleavage of substrate by DPPIV: Neither DPPIV nor APCE/FAP cleaved

## Cc1cc(=O)oc2cc(NC(=O)[C@@H]3CCCN3C(=O)CNC(=O)OCc3ccccc3)ccc12 [Z-GP-AMC, benzyloxycarbonyl (Z)-GP-AMC] (Cbz-Gly-Pro-{AMC})
DPPIV [5]
  cleavage of substrate by DPPIV: not cleaved by DPPIV

## CC(=O)N[C@@H](CCCCN)C(=O)N[C@@H](CC(C)C)C(=O)N[C@@H](CCCNC(=N)N)C(=O)N1CCC[C@H]1B(O)O [Compound J94, acetyl-Lys-Leu-Arg-(L)boroPro]
Aqueous solubility
  solubility in aqueous buffers: soluble in aqueous buffers
[8]
  diminished cancer growth: ~75%
APCE/FAP [1]; result in words
  inhibition of FAP: none towards FAP; also recorded: no effect on FAP
HMVEC-d
  formation of capillary-like tubes: inhibited formation of capillary-like tubes; also recorded: abrogated the genesis of capillary-like tubes
DPPIV [2]; result in words
  inhibition of DPPIV: nor was it inhibited
POP [3]
  Ki: < 0.1 µM

## CC(=O)N[C@@H](CCCNC(=N)N)C(=O)NCCOCCOCC(=O)N[C@@H](CO)C(=O)NCC(=O)N1CCC[C@H]1B(O)O [Ac-Arg-peg-Ser-Gly-L-boroPro]
APCE/FAP [1]
  Ki: 0.0027 µM
DPPIV [2]
  Ki: 0.861 µM
POP [3]
  Selectivity Ki (POP) / Ki (APCE/FAP): 1.1
  Ki: 0.0029 µM

## Ac-Arg-peg-Gly-DL-boroPro
APCE/FAP [1]
  Ki: 0.0031 µM
DPPIV [2]
  Selectivity Ki (DPPIV) / Ki (APCE-FAP): 371
  Ki: 1.15 µM

## Cc1cc(=O)oc2cc(NC(=O)[C@@H]3CCCN3C(=O)CN)ccc12 [GP-AMC] (H-Gly-Pro-{AMC})
POP [7]; result in words
  cleavage of substrate by POP: not cleaved by POP

## N[C@@H](CCC(=O)O)C(=O)N1CCC[C@H]1B(O)O [Glu-boroPro, glutamyl-proline boronic acid]
DPPIV [6]
  inhibition of DPPIV: also inhibits
[9]
  plasma half-life: exceptionally short

## CC(=O)N[C@@H](CCCNC(=N)N)C(=O)NCCOCCOCC(=O)N[C@H](C)C(=O)N1CCC[C@@H]1B(O)O (single isomer, unassigned) [Ac-Arg-peg-D-Ala-D-boroPro]
APCE/FAP [1]
  Ki: 0.189 µM
DPPIV [2]
  Ki: 20.5 µM
